System: common iliac artery of high cholesteric rabbits
Assay: Restenosis/thrombus model: balloon injury of common iliac artery in high cholesteric rabbits, local administration, angioscopy
Assay type: in vivo, rabbit
Conditions: after one month; trans-resveratrol + heparin (1:100) compared with heparin only, P<0.05
Description: The procedure of U.S. Pat. No. 5,595,974 to Tomaru may be used to evaluate the utility of trans-resveratrol in preventing restenosis in high cholestereric rabbits, as follows:
An injectable trans-resveratrol solution is prepared containing the following components: 10 mg trans-resveratrol; 3 mg chlorobutanol (preservative); 0.1 mg gelatin hydrolyzate (stabilizer); 9 mg sodium chloride (isotonic agent); and distilled water containing 2% dimethyl sulfoxide ("DMSO") for injection (to 1 mL).
Common iliac arteries of high cholesteric rabbits to which a diet containing 2% of cholesterol is loaded for a month are used as a model for restenosis, wherein the model consists of (1) a heparin group with seven male rabbits and (2) trans-resveratrol solution combined with th seven male rabbits, weighing between 2.5 kg and 3 kg, respectively. […]
Post-operatively, the percent luminal obstruction (%) of both the control side and the drug administered side are compared by continuing the load of high cholesterol for one month. That is, effects for preventing stenosis by local administration of trans-resveratrol is evaluated by angioscopic visualization after one month from vascular injury to compare the percent luminal obstruction (%) caused by intima pachymenia.
The percent luminal obstruction (%) is calculated by the following equation: […]

| Structure (SMILES) | percent luminal obstruction (%) |
| --- | --- |
| Oc1ccc(/C=C/c2cc(O)cc(O)c2)cc1 [trans-resveratrol] | remarkably reduced percent luminal obstruction (%) |

System: low-density lipoproteins
Assay: not given
Conditions: cited from earlier work

| Structure (SMILES) | protection of low-density lipoproteins against oxidation |
| --- | --- |
| Oc1ccc(/C=C\c2cc(O)cc(O)c2)cc1 [cis-resveratrol] | protect low-density lipoproteins against oxidation |
| Oc1ccc(/C=C/c2cc(O)cc(O)c2)cc1 [trans-resveratrol] | protect low-density lipoproteins against oxidation |
| O=c1c(O)c(-c2ccc(O)c(O)c2)oc2cc(O)cc(O)c12 [quercetin, reference compound] | protect low-density lipoproteins against oxidation |
| OC[C@H]1O[C@@H](Oc2cc(O)cc(/C=C/c3ccc(O)cc3)c2)[C@H](O)[C@@H](O)[C@@H]1O [trans-resveratrol glucoside] | protect low-density lipoproteins against oxidation |
| C[C@@H]1O[C@@H](OC[C@H]2O[C@@H](Oc3c(-c4ccc(O)c(O)c4)oc4cc(O)cc(O)c4c3=O)[C@H](O)[C@@H](O)[C@@H]2O)[C@H](O)[C@H](O)[C@H]1O [rutin, reference compound] | protect low-density lipoproteins against oxidation |
| Oc1cc(O)c2c(c1)O[C@H](c1ccc(O)c(O)c1)[C@H](O)C2 [epicatechin, reference compound] | protect low-density lipoproteins against oxidation |
| Oc1cc(O)c2c(c1)OC(c1ccc(O)c(O)c1)C(O)C2 (stereo not drawn) [catechin, reference compound] | protect low-density lipoproteins against oxidation |
| OC[C@H]1O[C@@H](Oc2cc(O)cc(/C=C\c3ccc(O)cc3)c2)[C@H](O)[C@@H](O)[C@@H]1O [cis-resveratrol glucoside] | protect low-density lipoproteins against oxidation |
